Measurements: ChEMBL document CHEMBL4507296 (2021)

Assays:
[1] = molecular target: Mu-type opioid receptor (Homo sapiens) (UniProt P35372); experiment: m-Opioid (human) CEREP ligand profiling; conditions: Compound concentration 10.0 uM
[2] = molecular target: Prostaglandin G/H synthase 2 (Homo sapiens) (UniProt P35354); experiment: Cyclooxygenase 2 (human) CEREP ligand profiling; conditions: Compound concentration 10.0 uM
[3] = test system: Tyrosine-protein kinase ABL1 (Homo sapiens), P00519 [Q252H]; conditions: Compound concentration 1000.0 nM
[4] = molecular target: Tyrosine-protein kinase ABL1 (Homo sapiens) (UniProt P00519); conditions: Compound concentration 1000.0 nM
[5] = molecular target: Cytoplasmic tyrosine-protein kinase BMX (Homo sapiens) (UniProt P51813); conditions: Compound concentration 1000.0 nM
[6] = molecular target: Serine/threonine-protein kinase B-raf (Homo sapiens) (UniProt P15056); conditions: Compound concentration 1000.0 nM
[7] = molecular target: Calcium/calmodulin-dependent protein kinase type II subunit alpha (Homo sapiens) (UniProt Q9UQM7); conditions: Compound concentration 1000.0 nM
[8] = molecular target: Calcium/calmodulin-dependent protein kinase type II subunit delta (Homo sapiens) (UniProt Q13557); conditions: Compound concentration 1000.0 nM
[9] = molecular target: Peripheral plasma membrane protein CASK (Homo sapiens) (UniProt O14936); conditions: Compound concentration 1000.0 nM
[10] = molecular target: Casein kinase I isoform alpha-like (Homo sapiens) (UniProt Q8N752); conditions: Compound concentration 1000.0 nM
[11] = molecular target: Serine/threonine-protein kinase DCLK1 (Homo sapiens) (UniProt O15075); conditions: Compound concentration 1000.0 nM
[12] = test system: Epidermal growth factor receptor (Homo sapiens), P00533 [L861Q]; conditions: Compound concentration 1000.0 nM
[13] = test system: Epidermal growth factor receptor (Homo sapiens), P00533 [T790M]; conditions: Compound concentration 1000.0 nM
[14] = molecular target: Mitogen-activated protein kinase 15 (Homo sapiens) (UniProt Q8TD08); conditions: Compound concentration 1000.0 nM
[15] = molecular target: Fibroblast growth factor receptor 4 (Homo sapiens) (UniProt P22455); conditions: Compound concentration 1000.0 nM
[16] = molecular target: Tyrosine-protein kinase Fgr (Homo sapiens) (UniProt P09769); conditions: Compound concentration 1000.0 nM
[17] = molecular target: Vascular endothelial growth factor receptor 1 (Homo sapiens) (UniProt P17948); conditions: Compound concentration 1000.0 nM
[18] = molecular target: Vascular endothelial growth factor receptor 3 (Homo sapiens) (UniProt P35916); conditions: Compound concentration 1000.0 nM
[19] = molecular target: Tyrosine-protein kinase JAK2 (Homo sapiens) (UniProt O60674); conditions: Compound concentration 1000.0 nM
[20] = molecular target: MAP/microtubule affinity-regulating kinase 3 (Homo sapiens) (UniProt P27448); conditions: Compound concentration 1000.0 nM
[21] = molecular target: MAP/microtubule affinity-regulating kinase 4 (Homo sapiens) (UniProt Q96L34); conditions: Compound concentration 1000.0 nM
[22] = molecular target: Microtubule-associated serine/threonine-protein kinase 1 (Homo sapiens) (UniProt Q9Y2H9); conditions: Compound concentration 1000.0 nM
[23] = molecular target: Dual specificity mitogen-activated protein kinase kinase 7 (Homo sapiens) (UniProt O14733); conditions: Compound concentration 1000.0 nM
[24] = molecular target: Serine/threonine-protein kinase 38 (Homo sapiens) (UniProt Q15208); conditions: Compound concentration 1000.0 nM
[25] = molecular target: Serine/threonine-protein kinase Nek9 (Homo sapiens) (UniProt Q8TD19); conditions: Compound concentration 1000.0 nM
[26] = molecular target: Mitogen-activated protein kinase kinase kinase 14 (Homo sapiens) (UniProt Q99558); conditions: Compound concentration 1000.0 nM
[27] = test system: Phosphatidylinositol 4,5-bisphosphate 3-kinase catalytic subunit alpha isoform (Homo sapiens), P42336 [C420R]; conditions: Compound concentration 1000.0 nM
[28] = molecular target: Phosphatidylinositol 4,5-bisphosphate 3-kinase catalytic subunit beta isoform (Homo sapiens) (UniProt P42338); conditions: Compound concentration 1000.0 nM
[29] = molecular target: Phosphatidylinositol 5-phosphate 4-kinase type-2 beta (Homo sapiens) (UniProt P78356); conditions: Compound concentration 1000.0 nM
[30] = molecular target: Protein kinase C epsilon type (Homo sapiens) (UniProt Q02156); conditions: Compound concentration 1000.0 nM
[31] = molecular target: Protein kinase C eta type (Homo sapiens) (UniProt P24723); conditions: Compound concentration 1000.0 nM
[32] = molecular target: Interferon-induced, double-stranded RNA-activated protein kinase (Homo sapiens) (UniProt P19525); conditions: Compound concentration 1000.0 nM
[33] = molecular target: Ribosomal protein S6 kinase alpha-3 (Homo sapiens) (UniProt P51812); conditions: Compound concentration 1000.0 nM
[34] = molecular target: Serine/threonine-protein kinase Sgk2 (Homo sapiens) (UniProt Q9HBY8); conditions: Compound concentration 1000.0 nM
[35] = molecular target: Serine/threonine-protein kinase Sgk3 (Homo sapiens) (UniProt Q96BR1); conditions: Compound concentration 1000.0 nM
[36] = molecular target: STE20-like serine/threonine-protein kinase (Homo sapiens) (UniProt Q9H2G2); conditions: Compound concentration 1000.0 nM
[37] = molecular target: SRSF protein kinase 1 (Homo sapiens) (UniProt Q96SB4); conditions: Compound concentration 1000.0 nM
[38] = molecular target: STE20/SPS1-related proline-alanine-rich protein kinase (Homo sapiens) (UniProt Q9UEW8); conditions: Compound concentration 1000.0 nM
[39] = molecular target: TGF-beta receptor type-2 (Homo sapiens) (UniProt P37173); conditions: Compound concentration 1000.0 nM
[40] = molecular target: Tyrosine-protein kinase receptor Tie-1 (Homo sapiens) (UniProt P35590); conditions: Compound concentration 1000.0 nM
[41] = molecular target: Wee1-like protein kinase (Homo sapiens) (UniProt P30291); conditions: Compound concentration 1000.0 nM
[42] = molecular target: Serine/threonine-protein kinase WNK4 (Homo sapiens) (UniProt Q96J92); conditions: Compound concentration 1000.0 nM
[43] = molecular target: Beta-2 adrenergic receptor (Homo sapiens) (UniProt P07550); conditions: Compound concentration 10.0 uM
[44] = molecular target: Muscarinic acetylcholine receptor M3 (Homo sapiens) (UniProt P20309); conditions: Compound concentration 10.0 uM
[45] = molecular target: Alpha-1D adrenergic receptor (Homo sapiens) (UniProt P25100); conditions: Compound concentration 10.0 uM

Mitogen-activated protein kinase kinase kinase 14 (Homo sapiens), sequence (Q99558 whole entry, looked up, canonical isoform): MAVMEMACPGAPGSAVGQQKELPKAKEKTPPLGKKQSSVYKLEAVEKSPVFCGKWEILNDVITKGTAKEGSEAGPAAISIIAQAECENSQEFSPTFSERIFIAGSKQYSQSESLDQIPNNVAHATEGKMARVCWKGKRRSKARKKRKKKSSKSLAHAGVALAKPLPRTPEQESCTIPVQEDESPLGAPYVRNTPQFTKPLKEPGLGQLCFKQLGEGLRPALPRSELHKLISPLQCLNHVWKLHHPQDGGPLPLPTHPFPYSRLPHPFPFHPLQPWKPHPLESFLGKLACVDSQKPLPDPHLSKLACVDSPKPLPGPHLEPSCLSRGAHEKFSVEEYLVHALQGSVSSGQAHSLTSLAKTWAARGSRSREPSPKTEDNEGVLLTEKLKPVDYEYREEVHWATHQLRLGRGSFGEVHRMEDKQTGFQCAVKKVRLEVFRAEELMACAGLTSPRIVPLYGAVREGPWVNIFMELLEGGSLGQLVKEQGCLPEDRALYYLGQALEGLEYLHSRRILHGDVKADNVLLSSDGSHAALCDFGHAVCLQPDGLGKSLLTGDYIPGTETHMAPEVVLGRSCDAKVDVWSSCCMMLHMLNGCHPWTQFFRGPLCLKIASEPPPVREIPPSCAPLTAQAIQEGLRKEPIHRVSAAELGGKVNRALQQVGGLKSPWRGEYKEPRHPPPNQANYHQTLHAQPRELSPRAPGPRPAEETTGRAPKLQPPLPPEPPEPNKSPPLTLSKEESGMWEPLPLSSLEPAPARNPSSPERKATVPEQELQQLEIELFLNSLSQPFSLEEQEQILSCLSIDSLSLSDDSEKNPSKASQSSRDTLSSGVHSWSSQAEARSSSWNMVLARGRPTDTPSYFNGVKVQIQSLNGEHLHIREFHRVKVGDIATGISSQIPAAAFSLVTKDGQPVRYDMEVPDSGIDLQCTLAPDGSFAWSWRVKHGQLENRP
Fibroblast growth factor receptor 4 (Homo sapiens), sequence (P22455 22-802 limits assumed): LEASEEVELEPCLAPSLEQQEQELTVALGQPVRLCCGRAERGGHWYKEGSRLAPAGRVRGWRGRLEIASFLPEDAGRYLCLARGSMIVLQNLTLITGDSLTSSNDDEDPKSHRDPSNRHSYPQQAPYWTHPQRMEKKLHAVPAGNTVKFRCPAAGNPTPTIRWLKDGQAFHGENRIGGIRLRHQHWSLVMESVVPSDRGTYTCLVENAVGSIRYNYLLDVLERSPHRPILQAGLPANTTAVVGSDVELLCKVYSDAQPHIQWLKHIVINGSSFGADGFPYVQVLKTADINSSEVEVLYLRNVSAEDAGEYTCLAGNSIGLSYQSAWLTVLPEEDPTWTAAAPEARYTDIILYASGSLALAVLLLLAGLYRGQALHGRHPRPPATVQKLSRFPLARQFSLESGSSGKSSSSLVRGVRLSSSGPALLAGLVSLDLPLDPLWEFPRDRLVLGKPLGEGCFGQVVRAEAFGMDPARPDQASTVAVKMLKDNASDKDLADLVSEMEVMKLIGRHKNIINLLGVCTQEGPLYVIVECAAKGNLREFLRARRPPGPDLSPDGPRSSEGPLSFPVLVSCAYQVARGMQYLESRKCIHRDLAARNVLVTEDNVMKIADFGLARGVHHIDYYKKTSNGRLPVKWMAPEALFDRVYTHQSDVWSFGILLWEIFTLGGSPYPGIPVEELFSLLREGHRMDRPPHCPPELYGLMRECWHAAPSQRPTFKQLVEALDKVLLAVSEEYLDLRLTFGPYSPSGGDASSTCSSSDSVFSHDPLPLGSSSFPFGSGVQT
Serine/threonine-protein kinase WNK4 (Homo sapiens), sequence (Q96J92 whole entry): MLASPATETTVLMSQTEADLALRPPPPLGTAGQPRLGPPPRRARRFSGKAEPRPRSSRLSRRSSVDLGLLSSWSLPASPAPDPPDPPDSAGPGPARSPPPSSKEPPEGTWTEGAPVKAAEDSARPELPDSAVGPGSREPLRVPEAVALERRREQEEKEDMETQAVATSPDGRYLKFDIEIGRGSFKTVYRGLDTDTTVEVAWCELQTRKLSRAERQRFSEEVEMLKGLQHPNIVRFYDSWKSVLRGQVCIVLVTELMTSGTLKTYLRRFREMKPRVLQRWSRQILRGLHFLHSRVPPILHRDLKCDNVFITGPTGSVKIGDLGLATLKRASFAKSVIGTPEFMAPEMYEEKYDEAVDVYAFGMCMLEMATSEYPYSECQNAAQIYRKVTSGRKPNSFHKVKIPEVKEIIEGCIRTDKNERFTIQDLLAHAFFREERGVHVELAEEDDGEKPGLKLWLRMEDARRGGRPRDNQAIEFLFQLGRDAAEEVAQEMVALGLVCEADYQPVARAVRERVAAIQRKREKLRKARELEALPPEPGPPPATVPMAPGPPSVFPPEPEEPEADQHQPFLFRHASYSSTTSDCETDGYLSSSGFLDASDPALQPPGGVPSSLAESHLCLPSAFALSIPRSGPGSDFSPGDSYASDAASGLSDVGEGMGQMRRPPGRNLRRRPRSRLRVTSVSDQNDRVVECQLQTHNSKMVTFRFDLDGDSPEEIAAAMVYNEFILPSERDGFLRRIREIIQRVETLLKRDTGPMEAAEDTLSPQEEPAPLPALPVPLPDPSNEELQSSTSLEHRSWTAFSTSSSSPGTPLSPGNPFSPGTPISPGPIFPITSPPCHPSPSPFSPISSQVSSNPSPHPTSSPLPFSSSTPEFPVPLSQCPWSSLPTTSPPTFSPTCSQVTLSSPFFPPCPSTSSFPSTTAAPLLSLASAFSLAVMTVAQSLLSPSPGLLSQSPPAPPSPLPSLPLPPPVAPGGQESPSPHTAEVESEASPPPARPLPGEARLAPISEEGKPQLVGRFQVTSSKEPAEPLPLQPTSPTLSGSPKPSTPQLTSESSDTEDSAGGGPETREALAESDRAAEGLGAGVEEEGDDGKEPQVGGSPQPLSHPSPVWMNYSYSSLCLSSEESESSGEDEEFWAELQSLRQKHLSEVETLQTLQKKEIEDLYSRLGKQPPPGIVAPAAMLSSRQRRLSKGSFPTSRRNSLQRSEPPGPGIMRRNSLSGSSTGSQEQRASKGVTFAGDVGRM
Serine/threonine-protein kinase Sgk3 (Homo sapiens), sequence (Q96BR1 whole entry): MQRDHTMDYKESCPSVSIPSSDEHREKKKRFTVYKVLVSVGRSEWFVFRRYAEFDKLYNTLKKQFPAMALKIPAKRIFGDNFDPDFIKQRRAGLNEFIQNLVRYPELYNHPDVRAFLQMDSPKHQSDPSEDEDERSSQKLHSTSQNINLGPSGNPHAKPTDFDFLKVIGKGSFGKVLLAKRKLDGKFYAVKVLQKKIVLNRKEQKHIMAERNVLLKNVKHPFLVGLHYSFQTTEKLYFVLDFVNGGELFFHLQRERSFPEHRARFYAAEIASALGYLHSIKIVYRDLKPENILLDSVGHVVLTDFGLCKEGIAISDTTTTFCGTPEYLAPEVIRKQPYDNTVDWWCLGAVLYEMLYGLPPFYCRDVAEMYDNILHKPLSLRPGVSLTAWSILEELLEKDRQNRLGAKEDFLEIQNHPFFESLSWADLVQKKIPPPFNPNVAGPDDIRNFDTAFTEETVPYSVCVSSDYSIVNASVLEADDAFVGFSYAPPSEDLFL
Serine/threonine-protein kinase Nek9 (Homo sapiens), sequence (Q8TD19 whole entry): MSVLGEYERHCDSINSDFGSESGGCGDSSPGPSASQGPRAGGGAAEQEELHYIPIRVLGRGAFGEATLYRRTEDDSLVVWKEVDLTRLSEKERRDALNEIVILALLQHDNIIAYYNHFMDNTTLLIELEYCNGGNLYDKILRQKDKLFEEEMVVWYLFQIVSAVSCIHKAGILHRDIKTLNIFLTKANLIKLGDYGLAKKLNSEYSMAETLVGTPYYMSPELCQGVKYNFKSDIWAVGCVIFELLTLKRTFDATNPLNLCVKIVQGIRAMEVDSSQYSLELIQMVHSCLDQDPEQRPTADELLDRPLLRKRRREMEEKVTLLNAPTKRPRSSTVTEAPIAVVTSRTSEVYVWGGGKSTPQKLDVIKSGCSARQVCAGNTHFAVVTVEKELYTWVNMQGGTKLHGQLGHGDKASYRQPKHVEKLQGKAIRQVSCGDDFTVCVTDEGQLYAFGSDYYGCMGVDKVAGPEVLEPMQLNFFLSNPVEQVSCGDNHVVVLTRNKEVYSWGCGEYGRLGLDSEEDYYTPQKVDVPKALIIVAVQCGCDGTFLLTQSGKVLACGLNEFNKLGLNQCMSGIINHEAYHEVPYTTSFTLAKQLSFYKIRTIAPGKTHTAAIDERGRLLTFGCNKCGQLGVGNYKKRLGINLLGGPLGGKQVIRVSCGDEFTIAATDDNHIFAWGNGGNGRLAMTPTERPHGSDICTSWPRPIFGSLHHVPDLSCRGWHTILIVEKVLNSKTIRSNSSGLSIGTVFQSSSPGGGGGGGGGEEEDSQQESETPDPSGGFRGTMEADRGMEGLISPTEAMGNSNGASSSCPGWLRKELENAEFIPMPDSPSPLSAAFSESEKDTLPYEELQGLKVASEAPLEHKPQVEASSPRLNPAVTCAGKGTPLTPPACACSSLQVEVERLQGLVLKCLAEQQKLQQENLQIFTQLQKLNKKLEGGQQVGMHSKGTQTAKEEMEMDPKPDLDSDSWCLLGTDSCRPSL
Serine/threonine-protein kinase Sgk2 (Homo sapiens), sequence (Q9HBY8 whole entry): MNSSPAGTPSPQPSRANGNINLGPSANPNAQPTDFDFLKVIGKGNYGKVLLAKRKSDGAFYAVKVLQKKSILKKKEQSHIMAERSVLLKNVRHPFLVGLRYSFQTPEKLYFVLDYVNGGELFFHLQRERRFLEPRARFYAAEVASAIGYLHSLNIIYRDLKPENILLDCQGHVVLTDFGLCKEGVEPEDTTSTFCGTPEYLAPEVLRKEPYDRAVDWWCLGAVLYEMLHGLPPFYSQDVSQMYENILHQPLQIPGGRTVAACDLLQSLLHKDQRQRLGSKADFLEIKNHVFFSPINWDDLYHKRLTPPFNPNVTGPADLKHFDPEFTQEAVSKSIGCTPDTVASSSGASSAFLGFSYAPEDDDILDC

C[C@H](c1ccc(F)cc1)N(Cc1cccc(C(=O)O)c1)C(=O)c1cnc2ccccc2c1 [PF-05105679]
inactive: inhibition [1] 25% | inhibition [2] 21% | residual activity [3] 90% | residual activity [4] 76% | residual activity [5] 99% | residual activity [6] 90% | residual activity [7] 97% | residual activity [8] 100% | residual activity [9] 86% | residual activity [10] 100% | residual activity [11] 100% | residual activity [12] 100% | residual activity [13] 100% | residual activity [14] 93% | residual activity [15] 91% | residual activity [16] 100% | residual activity [17] 100% | residual activity [18] 95% | residual activity [19] 88% | residual activity [20] 100% | residual activity [21] 100% | residual activity [22] 100% | residual activity [23] 100% | residual activity [24] 100% | residual activity [25] 100% | residual activity [26] 100% | residual activity [27] 100% | residual activity [28] 100% | residual activity [29] 96% | residual activity [30] 95% | residual activity [31] 75% | residual activity [32] 100% | residual activity [33] 89% | residual activity [34] 93% | residual activity [35] 100% | residual activity [36] 100% | residual activity [37] 95% | residual activity [38] 82% | residual activity [39] 100% | residual activity [40] 93% | residual activity [41] 96% | residual activity [42] 91% | inhibition [43] 23.7% | inhibition [44] -7.68% | inhibition [45] 27.3%
